Measured values taken from ChEMBL document CHEMBL4507256 (2021).

Experiments:
[1] = biological target: T1, GABA-A receptor; anion channel (Rattus norvegicus) (UniProt O09028+P15431+P18506+P18508+P19969+P20236+P23574+P23576+P28471+P28473+P30191+P62813+P63079+P63138+Q91ZM7+Q9ES14); details: Compound concentration 10.0 uM
[2] = biological target: Receptor-type tyrosine-protein kinase FLT3 (Homo sapiens) (UniProt P36888); details: Compound concentration 1000.0 nM
[3] = biological target: Tyrosine-protein kinase HCK (Homo sapiens) (UniProt P08631); details: Compound concentration 1000.0 nM
[4] = system: Mast/stem cell growth factor receptor Kit (Homo sapiens), P10721 [D816H]; details: Compound concentration 1000.0 nM
[5] = biological target: Microtubule-associated serine/threonine-protein kinase 1 (Homo sapiens) (UniProt Q9Y2H9); details: Compound concentration 1000.0 nM
[6] = biological target: Tyrosine-protein kinase receptor TYRO3 (Homo sapiens) (UniProt Q06418); details: Compound concentration 1000.0 nM
[7] = biological target: Serine/threonine-protein kinase/endoribonuclease IRE1 (Homo sapiens) (UniProt O75460); details: Compound concentration 1000.0 nM
[8] = biological target: Serine/threonine-protein kinase N1 (Homo sapiens) (UniProt Q16512); details: Compound concentration 1000.0 nM
[9] = biological target: LIM domain kinase 1 (Homo sapiens) (UniProt P53667); details: Compound concentration 1000.0 nM
[10] = biological target: Tyrosine-protein kinase TXK (Homo sapiens) (UniProt P42681); details: Compound concentration 1000.0 nM
[11] = biological target: Cyclin-dependent kinase 4 (Homo sapiens) (UniProt P11802); details: Compound concentration 1000.0 nM
[12] = biological target: Serine/threonine-protein kinase 32B (Homo sapiens) (UniProt Q9NY57); details: Compound concentration 1000.0 nM
[13] = biological target: Cyclin-dependent kinase 13 (Homo sapiens) (UniProt Q14004); details: Compound concentration 1000.0 nM
[14] = biological target: Ephrin type-B receptor 1 (Homo sapiens) (UniProt P54762); details: Compound concentration 1000.0 nM
[15] = system: Tyrosine-protein kinase ABL1 (Homo sapiens), P00519 [F317L]; details: Compound concentration 1000.0 nM
[16] = biological target: Mitogen-activated protein kinase kinase kinase 13 (Homo sapiens) (UniProt O43283); details: Compound concentration 1000.0 nM
[17] = biological target: cAMP-dependent protein kinase catalytic subunit alpha (Homo sapiens) (UniProt P17612); details: Compound concentration 1000.0 nM
[18] = biological target: Mitogen-activated protein kinase 10 (Homo sapiens) (UniProt P53779); details: Compound concentration 1000.0 nM
[19] = biological target: Serine/threonine-protein kinase tousled-like 1 (Homo sapiens) (UniProt Q9UKI8); details: Compound concentration 1000.0 nM
[20] = biological target: Maternal embryonic leucine zipper kinase (Homo sapiens) (UniProt Q14680); details: Compound concentration 1000.0 nM
[21] = biological target: Serine/threonine-protein kinase Nek4 (Homo sapiens) (UniProt P51957); details: Compound concentration 1000.0 nM
[22] = biological target: TGF-beta receptor type-2 (Homo sapiens) (UniProt P37173); details: Compound concentration 1000.0 nM
[23] = biological target: Beta-3 adrenergic receptor (Homo sapiens) (UniProt P13945); details: Compound concentration 10.0 uM
[24] = biological target: Serine/threonine-protein kinase pim-3 (Homo sapiens) (UniProt Q86V86); details: Compound concentration 1000.0 nM
[25] = biological target: Interleukin-1 receptor-associated kinase 1 (Homo sapiens) (UniProt P51617); details: Compound concentration 1000.0 nM
[26] = system: Tyrosine-protein kinase ABL1 (Homo sapiens), P00519 [T315I]; details: Compound concentration 1000.0 nM
[27] = biological target: Discoidin domain-containing receptor 2 (Homo sapiens) (UniProt Q16832); details: Compound concentration 1000.0 nM
[28] = biological target: Serine/threonine-protein kinase STK11 (Homo sapiens) (UniProt Q15831); details: Compound concentration 1000.0 nM
[29] = biological target: Mitogen-activated protein kinase 4 (Homo sapiens) (UniProt P31152); details: Compound concentration 1000.0 nM
[30] = biological target: Hormonally up-regulated neu tumor-associated kinase (Homo sapiens) (UniProt P57058); details: Compound concentration 1000.0 nM
[31] = biological target: T1, GABA-A receptor; anion channel (Rattus norvegicus); details: Compound concentration 10.0 uM; remark: listed apart in the source
[32] = biological target: Tyrosine-protein kinase Lyn (Homo sapiens) (UniProt P07948); details: Compound concentration 1000.0 nM
[33] = biological target: Tyrosine-protein kinase JAK1 (Homo sapiens) (UniProt P23458); details: Compound concentration 1000.0 nM
[34] = biological target: Epithelial discoidin domain-containing receptor 1 (Homo sapiens) (UniProt Q08345); details: Compound concentration 1000.0 nM
[35] = biological target: Phosphatidylinositol 4,5-bisphosphate 3-kinase catalytic subunit delta isoform (Homo sapiens) (UniProt O00329); details: Compound concentration 1000.0 nM
[36] = biological target: Protein kinase C epsilon type (Homo sapiens) (UniProt Q02156); details: Compound concentration 1000.0 nM
[37] = biological target: T2, D(4) dopamine receptor (Homo sapiens) (UniProt P21917); details: Compound concentration 10.0 uM
T2 sequence (whole entry): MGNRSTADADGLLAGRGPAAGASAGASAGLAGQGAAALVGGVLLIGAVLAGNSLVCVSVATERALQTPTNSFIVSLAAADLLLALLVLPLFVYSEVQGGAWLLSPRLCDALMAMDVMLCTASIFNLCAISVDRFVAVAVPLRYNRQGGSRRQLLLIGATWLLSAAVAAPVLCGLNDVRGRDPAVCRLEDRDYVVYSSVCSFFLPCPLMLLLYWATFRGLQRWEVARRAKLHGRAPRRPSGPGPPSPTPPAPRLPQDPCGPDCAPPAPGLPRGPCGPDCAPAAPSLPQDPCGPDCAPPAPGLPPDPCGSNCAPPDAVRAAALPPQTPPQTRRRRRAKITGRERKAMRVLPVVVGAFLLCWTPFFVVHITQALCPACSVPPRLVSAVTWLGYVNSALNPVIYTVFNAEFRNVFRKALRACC

Sequence of Receptor-type tyrosine-protein kinase FLT3 (Homo sapiens) (P36888 whole entry): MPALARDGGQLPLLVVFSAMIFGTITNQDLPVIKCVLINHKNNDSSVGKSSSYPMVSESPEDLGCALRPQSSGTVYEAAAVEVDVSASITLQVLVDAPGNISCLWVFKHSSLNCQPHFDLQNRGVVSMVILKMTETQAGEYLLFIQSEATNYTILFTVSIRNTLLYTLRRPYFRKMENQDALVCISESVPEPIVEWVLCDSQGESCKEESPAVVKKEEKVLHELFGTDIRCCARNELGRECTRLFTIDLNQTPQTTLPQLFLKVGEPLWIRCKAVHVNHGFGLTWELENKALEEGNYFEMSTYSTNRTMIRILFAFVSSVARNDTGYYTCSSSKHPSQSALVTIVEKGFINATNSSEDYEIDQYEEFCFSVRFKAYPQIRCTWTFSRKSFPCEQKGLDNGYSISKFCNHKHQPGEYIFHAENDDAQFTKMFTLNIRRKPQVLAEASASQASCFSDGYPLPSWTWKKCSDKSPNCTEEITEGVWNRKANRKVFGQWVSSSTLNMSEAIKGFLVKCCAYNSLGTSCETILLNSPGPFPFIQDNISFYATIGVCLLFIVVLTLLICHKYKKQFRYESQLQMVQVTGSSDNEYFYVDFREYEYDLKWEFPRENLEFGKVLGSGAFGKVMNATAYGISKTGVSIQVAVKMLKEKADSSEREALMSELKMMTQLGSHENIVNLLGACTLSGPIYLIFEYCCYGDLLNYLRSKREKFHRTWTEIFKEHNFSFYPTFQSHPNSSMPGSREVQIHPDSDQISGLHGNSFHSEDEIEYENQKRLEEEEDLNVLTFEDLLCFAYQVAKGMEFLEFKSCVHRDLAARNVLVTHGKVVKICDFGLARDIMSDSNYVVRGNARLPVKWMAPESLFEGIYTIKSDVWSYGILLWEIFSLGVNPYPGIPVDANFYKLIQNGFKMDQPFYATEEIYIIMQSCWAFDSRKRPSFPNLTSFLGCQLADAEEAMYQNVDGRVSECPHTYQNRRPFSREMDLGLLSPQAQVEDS
Sequence of Serine/threonine-protein kinase Nek4 (Homo sapiens) (P51957 whole entry, looked up): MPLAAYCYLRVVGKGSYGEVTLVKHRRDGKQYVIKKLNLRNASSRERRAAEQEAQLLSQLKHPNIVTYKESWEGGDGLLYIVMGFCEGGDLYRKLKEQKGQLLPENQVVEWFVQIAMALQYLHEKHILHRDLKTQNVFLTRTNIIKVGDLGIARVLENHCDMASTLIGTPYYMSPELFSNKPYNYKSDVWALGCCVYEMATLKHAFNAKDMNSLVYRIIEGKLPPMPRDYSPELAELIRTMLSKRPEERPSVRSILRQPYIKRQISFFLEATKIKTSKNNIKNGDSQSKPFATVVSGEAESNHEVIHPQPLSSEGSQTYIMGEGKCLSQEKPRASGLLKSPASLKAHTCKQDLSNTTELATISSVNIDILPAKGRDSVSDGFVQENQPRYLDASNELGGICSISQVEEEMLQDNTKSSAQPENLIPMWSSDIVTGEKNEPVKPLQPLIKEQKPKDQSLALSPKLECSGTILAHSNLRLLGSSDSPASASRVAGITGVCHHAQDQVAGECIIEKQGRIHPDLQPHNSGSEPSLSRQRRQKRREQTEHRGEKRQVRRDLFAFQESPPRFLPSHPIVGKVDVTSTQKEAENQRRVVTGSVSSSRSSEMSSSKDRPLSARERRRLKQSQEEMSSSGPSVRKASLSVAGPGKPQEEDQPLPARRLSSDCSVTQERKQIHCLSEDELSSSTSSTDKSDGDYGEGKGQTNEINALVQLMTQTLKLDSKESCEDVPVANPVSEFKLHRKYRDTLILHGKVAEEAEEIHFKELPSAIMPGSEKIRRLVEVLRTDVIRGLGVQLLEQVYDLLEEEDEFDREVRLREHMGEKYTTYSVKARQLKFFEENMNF
Sequence of Mitogen-activated protein kinase 10 (Homo sapiens) (P53779 whole entry): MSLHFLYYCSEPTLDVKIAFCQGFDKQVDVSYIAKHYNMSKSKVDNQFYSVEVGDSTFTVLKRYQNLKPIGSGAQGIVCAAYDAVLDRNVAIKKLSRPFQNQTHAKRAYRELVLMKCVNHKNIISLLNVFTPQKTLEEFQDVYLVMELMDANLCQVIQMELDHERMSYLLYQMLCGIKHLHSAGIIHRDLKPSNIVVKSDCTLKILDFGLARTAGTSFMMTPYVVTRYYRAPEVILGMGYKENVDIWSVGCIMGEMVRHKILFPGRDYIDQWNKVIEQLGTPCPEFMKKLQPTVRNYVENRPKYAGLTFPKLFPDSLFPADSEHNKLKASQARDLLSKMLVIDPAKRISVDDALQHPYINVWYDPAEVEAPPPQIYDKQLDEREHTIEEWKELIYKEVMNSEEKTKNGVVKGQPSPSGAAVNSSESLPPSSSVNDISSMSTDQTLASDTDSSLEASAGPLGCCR
Sequence of Tyrosine-protein kinase HCK (Homo sapiens) (P08631 2-526 limits assumed): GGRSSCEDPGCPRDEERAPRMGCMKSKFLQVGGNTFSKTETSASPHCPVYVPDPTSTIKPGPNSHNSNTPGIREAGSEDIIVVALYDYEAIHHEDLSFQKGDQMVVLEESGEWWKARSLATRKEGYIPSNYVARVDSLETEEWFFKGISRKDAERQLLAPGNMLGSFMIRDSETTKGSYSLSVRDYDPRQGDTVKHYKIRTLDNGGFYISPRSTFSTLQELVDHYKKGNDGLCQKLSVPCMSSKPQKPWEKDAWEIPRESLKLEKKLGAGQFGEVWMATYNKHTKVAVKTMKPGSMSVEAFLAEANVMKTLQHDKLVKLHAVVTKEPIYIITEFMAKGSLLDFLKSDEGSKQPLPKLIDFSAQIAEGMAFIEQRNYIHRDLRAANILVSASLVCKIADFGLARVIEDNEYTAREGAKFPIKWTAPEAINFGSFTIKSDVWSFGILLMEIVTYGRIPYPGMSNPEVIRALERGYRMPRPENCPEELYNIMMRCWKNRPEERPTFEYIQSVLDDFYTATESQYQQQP
Sequence of Interleukin-1 receptor-associated kinase 1 (Homo sapiens) (P51617 whole entry, looked up): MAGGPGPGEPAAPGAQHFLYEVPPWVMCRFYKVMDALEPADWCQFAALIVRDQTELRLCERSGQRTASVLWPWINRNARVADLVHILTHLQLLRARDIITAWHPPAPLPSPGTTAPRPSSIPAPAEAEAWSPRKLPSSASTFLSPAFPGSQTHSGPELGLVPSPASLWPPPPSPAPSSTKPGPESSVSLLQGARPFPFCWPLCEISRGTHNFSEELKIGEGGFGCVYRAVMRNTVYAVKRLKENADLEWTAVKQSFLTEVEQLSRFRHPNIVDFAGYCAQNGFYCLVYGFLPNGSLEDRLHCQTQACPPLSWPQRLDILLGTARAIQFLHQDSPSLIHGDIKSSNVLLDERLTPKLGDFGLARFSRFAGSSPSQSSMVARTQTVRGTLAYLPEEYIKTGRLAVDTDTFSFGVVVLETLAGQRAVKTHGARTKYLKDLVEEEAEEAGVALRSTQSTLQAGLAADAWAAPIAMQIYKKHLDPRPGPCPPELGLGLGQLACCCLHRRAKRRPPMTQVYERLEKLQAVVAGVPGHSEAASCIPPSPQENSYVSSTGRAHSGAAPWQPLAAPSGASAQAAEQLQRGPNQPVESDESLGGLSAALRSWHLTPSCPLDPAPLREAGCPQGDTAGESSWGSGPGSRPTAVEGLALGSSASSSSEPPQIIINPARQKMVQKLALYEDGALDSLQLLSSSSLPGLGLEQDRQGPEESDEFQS
Sequence of Tyrosine-protein kinase JAK1 (Homo sapiens) (P23458 whole entry, the tested form may be a part): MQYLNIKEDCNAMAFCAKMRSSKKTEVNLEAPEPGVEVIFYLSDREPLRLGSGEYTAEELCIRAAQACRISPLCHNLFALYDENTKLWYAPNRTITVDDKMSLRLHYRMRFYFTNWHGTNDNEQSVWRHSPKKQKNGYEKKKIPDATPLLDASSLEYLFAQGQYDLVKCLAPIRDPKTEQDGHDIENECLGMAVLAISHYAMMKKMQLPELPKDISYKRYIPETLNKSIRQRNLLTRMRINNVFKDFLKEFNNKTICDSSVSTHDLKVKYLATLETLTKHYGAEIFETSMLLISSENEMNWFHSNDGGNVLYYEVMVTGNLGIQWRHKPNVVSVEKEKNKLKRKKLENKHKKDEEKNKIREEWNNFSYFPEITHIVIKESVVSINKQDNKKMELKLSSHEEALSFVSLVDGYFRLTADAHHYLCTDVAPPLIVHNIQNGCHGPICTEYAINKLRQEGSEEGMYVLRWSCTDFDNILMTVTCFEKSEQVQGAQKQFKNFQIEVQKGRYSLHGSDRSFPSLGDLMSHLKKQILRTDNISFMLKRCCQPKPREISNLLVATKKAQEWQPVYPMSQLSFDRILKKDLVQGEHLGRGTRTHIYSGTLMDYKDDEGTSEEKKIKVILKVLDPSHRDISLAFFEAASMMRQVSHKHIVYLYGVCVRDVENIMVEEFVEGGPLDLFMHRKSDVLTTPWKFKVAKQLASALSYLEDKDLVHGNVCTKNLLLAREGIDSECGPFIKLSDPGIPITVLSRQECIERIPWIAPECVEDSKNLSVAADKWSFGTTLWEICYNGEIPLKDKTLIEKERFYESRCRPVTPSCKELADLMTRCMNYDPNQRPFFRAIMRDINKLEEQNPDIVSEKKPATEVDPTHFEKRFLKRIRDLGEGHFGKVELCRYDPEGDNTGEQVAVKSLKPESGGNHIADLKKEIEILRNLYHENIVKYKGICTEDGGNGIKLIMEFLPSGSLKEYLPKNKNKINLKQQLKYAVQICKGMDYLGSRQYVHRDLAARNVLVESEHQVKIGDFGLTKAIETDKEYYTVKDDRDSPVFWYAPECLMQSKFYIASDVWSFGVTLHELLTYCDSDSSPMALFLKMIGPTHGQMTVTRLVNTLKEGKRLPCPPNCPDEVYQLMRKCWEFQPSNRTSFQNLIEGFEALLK

| Structure (SMILES) | inhibition [1] | residual activity [2] | residual activity [3] | residual activity [4] | residual activity [5] | residual activity [6] | residual activity [7] | residual activity [8] | residual activity [9] | residual activity [10] | residual activity [11] | residual activity [12] | residual activity [13] | residual activity [14] | residual activity [15] | residual activity [16] | residual activity [17] | residual activity [18] | residual activity [19] | residual activity [20] | also measured |
| --- | --- | --- | --- | --- | --- | --- | --- | --- | --- | --- | --- | --- | --- | --- | --- | --- | --- | --- | --- | --- | --- |
| CCC(=N\O)/C(C)=C/c1ccc(F)c(C)c1 [A-226] | 20.3% | 100% | 80% | 100% | 100% | 100% | 90% | 100% | 100% | 73% | 100% | 99% | 100% | 90% | 100% | 23% | 100% | 100% | 100% | 100% | residual activity [21]: 67%; residual activity [22]: 97%; inhibition [23]: 11.1%; residual activity [24]: 80%; residual activity [25]: 100%; residual activity [26]: 100%; residual activity [27]: 100%; residual activity [28]: 100%; residual activity [29]: 96%; residual activity [30]: 91%; inhibition [31]: 16.7%; residual activity [32]: 100%; residual activity [33]: 100%; residual activity [34]: 91%; residual activity [35]: 100%; residual activity [36]: 62%; inhibition [37]: 18.6% |
| CCC(=N\O)/C(C)=C/c1ccc(F)cc1 [A-079] | 21.5% | 86% | 100% | 65% | 71% | 100% | 77% | 100% | 78% | 81% | 78% | 100% | 95% | 100% | 81% | 96% | 78% | 100% | 100% | 96% | residual activity [21]: 83%; residual activity [22]: 74%; inhibition [23]: -0.54%; residual activity [24]: 96%; residual activity [25]: 79%; residual activity [26]: 75%; residual activity [27]: 91%; residual activity [28]: 100%; residual activity [29]: 75%; residual activity [30]: 76%; inhibition [31]: 14.7%; residual activity [32]: 87%; residual activity [33]: 96%; residual activity [34]: 89%; residual activity [35]: 72%; residual activity [36]: 76%; inhibition [37]: 19.5% |
